Values joined by “and” are separate entries in the source; they are usually repeats but may differ in a detail not shown here. Equal values may be shown once.
Test system: biotinylated HRP
Experiment: Model system for selection of SSIA (AK1/streptavidin BSA microparticles + biotinylated HRP)
Format: biochemical, horseradish
Conditions: SSIA 100 μM final
How it was run: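 Streptavidin/AK1/biotin-BSA M280 microparticles mixed with candidate SSIA (100 μM final) and Btn-HRP at 0, 1, 10, 100 or 250 ng/mL, with unlabeled HRP to 500 ng/mL total HRP. After 30 min at 37° C, trigger solution was added and light intensity recorded on a modified DxI analyzer.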

## O=C1O[C@H]([C@@H](O)CO)C(O)=C1O [Ascorbic Acid]
Btn-HRP 0 ng/mL, total HRP 500 ng/mL
  light intensity, BTN-HRP0: 97 and 151
Btn-HRP 1 ng/mL vs 0
  S1/S0: 7.8 and 6.6
Btn-HRP 1 ng/mL, total HRP 500 ng/mL
  light intensity, BTN-HRP1: 757 and 995
Btn-HRP 10 ng/mL vs 0
  S2/S0: 171.6 and 216.2
Btn-HRP 10 ng/mL, total HRP 500 ng/mL
  light intensity, BTN-HRP10: 16,641 and 32,568
Btn-HRP 100 ng/mL vs 0
  S3/S0: 38064.9 and 30222.2
Btn-HRP 100 ng/mL, total HRP 500 ng/mL
  light intensity, BTN-HRP100: 3,692,291 and 4,553,473
Btn-HRP 250 ng/mL vs 0
  S4/S0: 62228.3 and 59176.1
Btn-HRP 250 ng/mL, total HRP 500 ng/mL
  light intensity, BTN-HRP250: 6,036,145 and 8,915,869
  effectiveness as SSIA in the model system: demonstrating utility as SSIA

From US9029092B2, “Solution phase homogeneous assays” (Beckman Coulter, Inc., priority 2009, dated 2015)
